Assay results taken from US20030194445A1, “Compositions and methods of use of peptides in combination with biocides and/or germicides” (priority 2001, published 2003).
≈ marks a conversion by molar mass, not a printed value. Structures can show the parent of a compound that is named as a salt. Where two headings read alike, the source gives them in different places. *: point of attachment. Octanoyl = CCCCCCCC(=O)*

Experiments:
K. pneumoniae = assay: MIC of biocide actives and formulations, microtiter growth assay
P. aeruginosa = assay: as above
[1] = system: all organisms tested except P. aeruginosa; assay: Triclosan plus sub-biocidal peptide, summary over organisms; assay type: cell-based
Text: Thus, the potential use rate of triclosan as an antimicrobial is reduced.

microorganisms = assay: Triclosan plus sub-toxic levels of peptide on microbial growth; assay type: cell-based
Method: Effect of combinations of triclosan and sub-toxic levels of peptide on microbial growth is assessed. […] Thus, the potential use rate of triclosan as an antimicrobial is shown to be reduced.

K. pneumoniae ATCC 27736 [2] = system: K. pneumoniae ATCC 27736
P. aeruginosa ATCC 10145 [3] = system: P. aeruginosa ATCC 10145
C. albicans ATCC 10231 [4] = system: C. albicans ATCC 10231
E. coli ATCC 25922 [5] = system: E. coli ATCC 25922
S. cerevisiae ATCC 9763 [6] = system: S. cerevisiae ATCC 9763
[7] = system: S. aureus ATCC 33591 (MRSA)
K. pneumoniae ATCC 27736 [8] = assay: microbe, parasite or virus in culture; settings: Klebsiella pneumoniae, ATCC27736, read-out: Triclosan MIC
P. aeruginosa ATCC 10145 [9] = assay: microbe, parasite or virus in culture; settings: Pseudomonas aeruginosa, ATCC10145, read-out: Triclosan MIC
C. albicans ATCC 10231 [10] = assay: microbe, parasite or virus in culture; settings: Candida albicans, ATCC10231, read-out: Triclosan MIC
E. coli ATCC 25922 [11] = assay: microbe, parasite or virus in culture; settings: Escherichia coli, ATCC25922, read-out: Triclosan MIC
S. cerevisiae ATCC 9763 [12] = assay: microbe, parasite or virus in culture; settings: Saccharomyces cerevisiae, ATCC9763, read-out: Triclosan MIC
[13] = system: S. aureus ATCC 33591 (MRSA); assay: microbe, parasite or virus in culture; settings: Staphylococcus aureus, read-out: Triclosan MIC
[14] = system: microbes such as Salmonella typhimurium and Clostridium botulinum; assay type: cell-based; settings: food preservative use
E. coli = assay: Peptide-containing textile fiber, MIC; assay type: cell-based, Escherichia coli; settings: E. coli in LB media
Text: Peptide compositions comprising peptides of the present invention and at least one biocide or germicide may be applied by coating or spinning effective amounts of peptide onto or into the desired polymer. The peptides may be prepared in an aqueous solution to use as a coating solution or combined with a polymer. […] A peptide and polymer solution or mixture may be made and undergo casting or formation to the desired shaped article, fiber or film. The shaped article, fiber or film may then be quenched in water or methanol, allowed to air dry or dry under an appropriate atmosphere to prevent oxidative reactions.
The resulting solution may be placed into a microscale spinning apparatus and fiber is formed while wet with methanol. The antimicrobial activity of the peptides may be tested in tubes containing LB media innoculated with the peptide-containing fiber and E. coli growing at log phase (1×10^6 to 1×10^7 cells/ml). Aliquots can be taken from the culture tube at periodic intervals and absorbance readings at 600 nm (uv/vis) can be measured in a microcuvette.

[15] = K. pneumoniae, growth inhibited by >90%
[16] = P. aeruginosa, growth inhibited by >90%
[17] = triclosan MIC with octanoyl-RR-NH-octyl at 0.5 ppm
[18] = triclosan MIC with octanoyl-R-NH-octyl at 4 ppm

Q: What does the source list for `O=CCCCC=O` [Aqucar, glutaraldehyde]?
A: MIC (K. pneumoniae; Klebsiella pneumoniae): 250 mg/L; MIC (P. aeruginosa; Pseudomonas aeruginosa): 500 mg/L

Q: With `CCCCCCCCCCCCNC(=N)N` [DGH, dodecylguanidine hydrochloride] as the compound, how does the MIC (K. pneumoniae; Klebsiella pneumoniae) read?
A: 2.5 mg/L

Q: And the MIC (P. aeruginosa; Pseudomonas aeruginosa)?
A: 10 mg/L

Q: With `N#CSCSC#N` [MBT, methylene bis(thiocyanate)] as the compound, how does the MIC (K. pneumoniae; [15]) read?
A: 0.6 mg/L

Q: What about the MIC (P. aeruginosa; [16]) of the same compound?
A: 0.6 mg/L

Q: `O=[N+]([O-])C(Br)(CO)CO` [Myacide, 2-bromo-2-nitropropane-1,3-diol] was tested. Which MIC (K. pneumoniae; Klebsiella pneumoniae) did it give?
A: 10 mg/L

Q: What about the MIC (P. aeruginosa; Pseudomonas aeruginosa) of the same compound?
A: 1.3 mg/L

Q: With `Oc1cc(Cl)ccc1Oc1ccc(Cl)cc1Cl` [Triclosan, 2,4,4′-trichloro-2′-hydroxydiphenylether] as the compound, how does the “inhibitory effect of triclosan on addition of sub-biocidal amounts of peptide” value [1] read?
A: substantially increased

Q: And the “inhibitory effect of triclosan with a peptide of the invention in sub-toxic amounts” value (microorganisms)?
A: substantially increase

Q: What about the “Triclosan plus constant [peptide]” value (K. pneumoniae ATCC 27736 [2]; [17]) of the same compound?
A: 0.031 (0.5 ppm) μg/ml

Q: And the “Triclosan plus constant [peptide]” value (K. pneumoniae ATCC 27736 [2]; triclosan MIC with octanoyl-RR-NH-octyl at 1 ppm)?
A: 0.00003 (1 ppm) μg/ml

Q: What about the “Triclosan plus constant [peptide]” value (P. aeruginosa ATCC 10145 [3]; [18]) of the same compound?
A: >250 (4 ppm) μg/ml

Q: And the “Triclosan plus constant [peptide]” value (C. albicans ATCC 10231 [4]; triclosan MIC with octanoyl-RR-NH-octyl at 2 ppm)?
A: 4 (2 ppm) μg/ml

Q: And the “Triclosan plus constant [peptide]” value (C. albicans ATCC 10231 [4]; triclosan MIC with octanoyl-RR-NH-octyl at 4 ppm)?
A: 2 (4 ppm) μg/ml

Q: And the “Triclosan plus constant [peptide]” value (E. coli ATCC 25922 [5]; [18])?
A: <0.00003 (4 ppm) μg/ml

Q: And the “Triclosan plus constant [peptide]” value (S. cerevisiae ATCC 9763 [6]; triclosan MIC with octanoyl-R-NH-octyl at 2 ppm)?
A: 2 (2 ppm) μg/ml

Q: And the “Triclosan plus constant [peptide]” value [7, 17]?
A: 0.002 (0.5 ppm) μg/ml

Q: And the MIC (K. pneumoniae ATCC 27736 [8])?
A: 0.061 mg/L (≈ 0.211 µM)

Q: And the MIC (P. aeruginosa ATCC 10145 [9])?
A: > 250 mg/L

Q: And the MIC (C. albicans ATCC 10231 [10])?
A: 8 mg/L (≈ 27.6 µM)

Q: And the MIC (E. coli ATCC 25922 [11])?
A: 0.002 mg/L (≈ 0.00691 µM)

Q: What about the MIC (S. cerevisiae ATCC 9763 [12]) of the same compound?
A: 4 mg/L (≈ 13.8 µM)

Q: And the MIC [13]?
A: 0.015 mg/L (≈ 0.0518 µM)

Q: With `N#CC(Br)(Br)C(N)=O` [compound 7287, 2,2-dibromo-3-nitrilo propionamide] as the compound, how does the MIC (K. pneumoniae; [15]) read?
A: 40.0 mg/L

Q: What about the MIC (P. aeruginosa; [16]) of the same compound?
A: 40.0 mg/L

Q: How did the “Peptide MIC” value (P. aeruginosa ATCC 10145 [3]; ATCC 10145, 19 h) turn out when `CCCCCCCCNC(=O)[C@H](CCCNC(=N)N)NC(=O)CCCCCCC` [octanoyl-R-NH-octyl, octanoyl-R—NH-octyl] was run?
A: 8 mg/L

Q: What about the “Peptide MIC” value (E. coli ATCC 25922 [5]; ATCC 25922, 19 h) of the same compound?
A: 8 mg/L

Q: What about the “Peptide MIC” value (S. cerevisiae ATCC 9763 [6]; ATCC 9763, 19 h) of the same compound?
A: 8 mg/L

Q: `CCCCCCCCNC(=O)[C@H](CCCNC(=N)N)NC(=O)[C@H](CCCNC(=N)N)NC(=O)CCCCCCC` [octanoyl-RR-NH-octyl, octanoyl-RR—NH-octyl] was tested. Which “Peptide MIC” value (K. pneumoniae ATCC 27736 [2]; ATCC 27736, 19 h) did it give?
A: 4 mg/L

Q: What about the “Peptide MIC” value (C. albicans ATCC 10231 [4]; ATCC 10231, 19 h) of the same compound?
A: 8 mg/L

Q: What about the “Peptide MIC” value ([7]; ATCC 33591, 19 h) of the same compound?
A: 2 mg/L

Q: With “Acetyl-Arg-Trp-Arg-Trp-NH2 (Ac-RWRW-NH2)” as the compound, how does the MIC [14] read?
A: ≦31 μg/ml

Q: And the MIC (E. coli)?
A: ≦31 μg/ml

Q: How did the MIC [14] turn out when Decanoyl-Arg-NH-decyl was run?
A: ≦8 μg/ml

Q: What about the MIC (E. coli) of the same compound?
A: ≦15 μg/ml

Q: With Nonanoyl-Arg-Arg-NH-nonyl as the compound, how does the MIC (E. coli) read?
A: ≦2 μg/ml

Q: For Nonanoyl-Arg-NH-nonyl, which MIC [14] is on record?
A: ≦4 μg/ml

Q: Octanoyl-Arg-Ala-NH-octyl was tested. Which MIC [14] did it give?
A: ≦15 μg/ml

Q: How did the MIC (E. coli) turn out when Octanoyl-Arg-Arg-Arg-NH-octyl was run?
A: ≦8 μg/ml

Q: Octanoyl-Arg-Cys-NH-octyl was tested. Which MIC [14] did it give?
A: ≦15 μg/ml

Q: With “Octanoyl-Arg-Phe-Phe-Arg-NH-octyl (Octanoyl-RFFR-{NH‑octyl})” as the compound, how does the MIC (E. coli) read?
A: ≦4 μg/ml

Q: With Octanoyl-Arg-Trp-NH2 as the compound, how does the MIC [14] read?
A: ≦15 μg/ml

Q: What about the MIC (E. coli) of the same compound?
A: ≦15 μg/ml

Q: With Octanoyl-Arg-Trp-Phe-NH2 as the compound, how does the MIC (E. coli) read?
A: ≦15 μg/ml

Q: How did the MIC [14] turn out when Octanoyl-Lys-Arg-NH-octyl was run?
A: ≦4 μg/ml

Q: How did the MIC (K. pneumoniae; [15]) turn out when “n-alkyl (C12-40%, C14-50%, C16-10%) dimethylbenzylammonium chloride [Maquat]” was run?
A: 0.6 mg/L

Q: And the MIC (P. aeruginosa; [16])?
A: 7.8 mg/L
